According to ChEMBL document CHEMBL1201862, “PubChem BioAssay data set” (2004):
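All cell lines were grown in 96-well plates and treated with compound for 48 hours. The concentration for 50% growth inhibition is given as GI50.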 Active and inactive are the calls of the source. Cut-off read from the data, not from the text of the source: active = GI50 up to about 1.1 µM and inactive = higher.

Columns and labels:
Test in all cases: NCI-60 cell line screen, 48 h
[1] = system: UACC-257
[2] = system: KM12
[3] = system: SF-295
[4] = system: HCT-15
[5] = system: U-251
[6] = system: HT-29
[7] = system: SK-MEL-2
[8] = system: HCT-116
[9] = system: SN12C
[10] = system: SK-MEL-5
[11] = system: SK-MEL-28
[12] = system: T47D
[13] = system: UO-31
[14] = system: SF-539
[15] = system: TK-10
[16] = system: HOP-62
[17] = system: CCRF-CEM
[18] = system: BT-549
[19] = system: LOX IMVI
[20] = system: MOLT-4

Structure (SMILES)	GI50 [1]	GI50 [2]	GI50 [3]	GI50 [4]	GI50 [5]	GI50 [6]	GI50 [7]	GI50 [8]	GI50 [9]	GI50 [10]	GI50 [11]	GI50 [12]	GI50 [13]	GI50 [14]	GI50 [15]	GI50 [16]	GI50 [17]	GI50 [18]	GI50 [19]	GI50 [20]
C/C(=N\C1CCCCC1)c1ccccc1O	> 100 µM (inactive)	> 100 µM (inactive)	> 100 µM (inactive)	> 100 µM	> 100 µM (inactive)	> 100 µM (inactive)	> 100 µM (inactive)	> 100 µM (inactive)	> 100 µM (inactive)	> 100 µM (inactive)	> 100 µM (inactive)	> 100 µM (inactive)	> 100 µM (inactive)	> 100 µM (inactive)	> 100 µM (inactive)	> 100 µM (inactive)	54 µM (inactive)	> 100 µM (inactive)	> 100 µM (inactive)	> 100 µM (inactive)
Cc1cc(S(=O)(=O)Nc2n[nH]c(Nc3ccccc3)n2)c(S)cc1Cl	> 10 µM (inactive)	> 10 µM (inactive)	> 10 µM (inactive)	> 10 µM	> 10 µM (inactive)	> 10 µM (inactive)	> 10 µM (inactive)	> 10 µM (inactive)	> 10 µM (inactive)	> 10 µM (inactive)	> 10 µM (inactive)	> 10 µM (inactive)	> 10 µM (inactive)	> 10 µM (inactive)	> 10 µM (inactive)	> 10 µM (inactive)	> 10 µM (inactive)	> 10 µM (inactive)	> 10 µM (inactive)	> 10 µM (inactive)
c1ccc2cc(CN3CCC(C4CCN(Cc5ccc6ccccc6c5)CC4)CC3)ccc2c1	1.98 µM (inactive)	2.97 µM (inactive)	1.9 µM (inactive)	3.18 µM	2.33 µM (inactive)	1.52 µM (inactive)	2.18 µM (inactive)	6.79 µM (inactive)	21.8 µM (inactive)	2.06 µM (inactive)	1.87 µM (inactive)	4.76 µM (inactive)	1.34 µM (inactive)	1.8 µM (inactive)	3.82 µM (inactive)	2.49 µM (inactive)	4.06 µM (inactive)	10.3 µM (inactive)	2.22 µM (inactive)	3.41 µM (inactive)
CSc1c(CC(=O)Nc2ccc(Cl)cc2)n(Cc2ccccc2)c2ccccc12	24.8 µM (inactive)	> 100 µM (inactive)	62.7 µM (inactive)	30.5 µM	11.6 µM (inactive)	39.4 µM (inactive)	14.2 µM (inactive)	23.9 µM (inactive)	32 µM (inactive)	29.9 µM (inactive)	> 100 µM (inactive)	12.1 µM (inactive)	34.3 µM (inactive)	3 µM (inactive)	16 µM (inactive)	21.2 µM (inactive)	40.3 µM (inactive)	15.1 µM (inactive)	38 µM (inactive)	43.1 µM (inactive)
CC(=O)NCCC1CN(C(=O)/C=C/I)c2ccccc21 (stereo not given)	7.48 µM (inactive)	1.24 µM (inactive)	15.5 µM (inactive)	4.93 µM	10.8 µM (inactive)	5.51 µM (inactive)	3.29 µM (inactive)	4.01 µM (inactive)	3.93 µM (inactive)	7.57 µM (inactive)	6.04 µM (inactive)	2.04 µM (inactive)	2.89 µM (inactive)	8 µM (inactive)	1.42 µM (inactive)	14.2 µM (inactive)	2.95 µM (inactive)	5.42 µM (inactive)	1.56 µM (inactive)	3.79 µM (inactive)
COc1cccc(OC)c1NC(=O)C(=O)Nn1c(NNC(=O)c2ccncc2)nc2ccccc2c1=O	> 100 µM (inactive)	> 100 µM (inactive)	> 100 µM (inactive)	> 100 µM	> 100 µM (inactive)	> 100 µM (inactive)	> 100 µM (inactive)	> 100 µM (inactive)	> 100 µM (inactive)	> 100 µM (inactive)	> 100 µM (inactive)	> 100 µM (inactive)	> 100 µM (inactive)	> 100 µM (inactive)	> 100 µM (inactive)	> 100 µM (inactive)	> 100 µM (inactive)	> 100 µM (inactive)	> 100 µM (inactive)	> 100 µM (inactive)
CC12C=CC(=O)C=C1CCC1C3CCC(O)(C(=O)CO)C3(C)CC(O)C12F (stereo not given)	> 100 µM (inactive)	> 100 µM (inactive)	> 100 µM (inactive)	> 100 µM	> 100 µM (inactive)	> 100 µM (inactive)	> 100 µM (inactive)	> 100 µM (inactive)	> 100 µM (inactive)	> 100 µM (inactive)	> 100 µM (inactive)	> 100 µM (inactive)	> 100 µM (inactive)	> 100 µM (inactive)	> 100 µM (inactive)	> 100 µM (inactive)	0.536 µM (active)	95.3 µM (inactive)	> 100 µM (inactive)	> 100 µM (inactive)
CCOC(=O)C1=C(C(=O)OCC)SC2(S1)C(C(=O)OCC)=C(C(=O)OCC)Sc1c2ssc1=O	1.6 µM (inactive)	4.52 µM (inactive)	15 µM (inactive)	0.912 µM	1.93 µM (inactive)	1.76 µM (inactive)	2.17 µM (inactive)	0.815 µM (active)	0.918 µM (active)	2.03 µM (inactive)	1.84 µM (inactive)	1.76 µM (inactive)	1.54 µM (inactive)	0.845 µM (active)	1.73 µM (inactive)	1.67 µM (inactive)	0.16 µM (active)	1.94 µM (inactive)	0.239 µM (active)	0.226 µM (active)
CN1CC2=C(OC(N)=C(C#N)C2c2cccs2)/C(=C/c2cccs2)C1 (stereo not given)	9.53 µM (inactive)	9.12 µM (inactive)	11.6 µM (inactive)	15.5 µM	8.59 µM (inactive)	12.7 µM (inactive)	> 35.1 µM (inactive)	8.43 µM (inactive)	34.8 µM (inactive)	3.41 µM (inactive)	> 57.9 µM (inactive)	0.202 µM (active)	34 µM (inactive)	48.8 µM (inactive)	> 51.2 µM (inactive)	19.3 µM (inactive)	5.52 µM (inactive)	5.62 µM (inactive)	13.9 µM (inactive)	2.43 µM (inactive)
COc1ccc(Cl)cc1NC(=O)O/N=C(\Cl)C(C)C	17.1 µM (inactive)	16.8 µM (inactive)	17.9 µM (inactive)	2.64 µM	26.4 µM (inactive)	16.4 µM (inactive)	18.7 µM (inactive)	7.19 µM (inactive)	8.49 µM (inactive)	5.22 µM (inactive)	18.4 µM (inactive)	3.38 µM (inactive)	13.8 µM (inactive)	13.1 µM (inactive)	2.55 µM (inactive)	18.4 µM (inactive)	1.04 µM (active)	2.56 µM (inactive)	2.08 µM (inactive)	2.03 µM (inactive)
CO[C@H]1[C@@H](O)[C@@H](C)O[C@@H](O[C@H]2CC[C@@]3(C)[C@H](CC[C@@H]4[C@@H]3CC[C@]3(C)[C@@H](C5=CC(=O)OC5)CC[C@]43O)C2)[C@@H]1O [ODOROSIDE H]	0.0109 µM (active)	0.0112 µM (active)	0.00516 µM (active)	0.00766 µM	0.00836 µM (active)	0.00573 µM (active)	0.0169 µM (active)	0.00482 µM (active)	0.00467 µM (active)	0.00509 µM (active)	0.0394 µM (active)	0.0333 µM (active)	0.00454 µM (active)	0.00468 µM (active)	0.00336 µM (active)	0.00361 µM (active)	0.00422 µM (active)	0.00514 µM (active)	0.00689 µM (active)	< 0.0025 µM (active)
COc1cc2c(cc1OCCCCCN1C(=O)c3cccc4cccc(c34)C1=O)N=C[C@@H]1CCCN1C2=O	0.323 µM (active)	0.231 µM (active)	0.386 µM (active)	0.331 µM	0.249 µM (active)	0.286 µM (active)	0.223 µM (active)	0.215 µM (active)	0.336 µM (active)	0.257 µM (active)	0.301 µM (active)	0.13 µM (active)	0.153 µM (active)	0.0646 µM (active)	0.129 µM (active)	0.262 µM (active)	0.0142 µM (active)	0.244 µM (active)	0.126 µM (active)	0.0743 µM (active)
CSc1n[nH]c2[nH]nc(C)c12	> 100 µM (inactive)	> 100 µM (inactive)	> 100 µM (inactive)	> 100 µM	> 100 µM (inactive)	> 100 µM (inactive)	> 100 µM (inactive)	> 100 µM (inactive)	> 100 µM (inactive)	> 100 µM (inactive)	> 100 µM (inactive)	> 100 µM (inactive)	> 100 µM (inactive)	> 100 µM (inactive)	> 100 µM (inactive)	> 100 µM (inactive)	> 100 µM (inactive)	> 100 µM (inactive)	> 100 µM (inactive)	8.53 µM (inactive)
Cn1c(=O)nc2n(CCO)ccnc-2c1=O	> 100 µM (inactive)	> 100 µM (inactive)	> 100 µM (inactive)	> 100 µM	> 100 µM (inactive)	> 100 µM (inactive)	> 100 µM (inactive)	> 100 µM (inactive)	> 100 µM (inactive)	> 100 µM (inactive)	> 100 µM (inactive)	> 100 µM (inactive)	> 100 µM (inactive)	> 100 µM (inactive)	> 100 µM (inactive)	> 100 µM (inactive)	> 100 µM (inactive)	> 100 µM (inactive)	> 100 µM (inactive)	> 100 µM (inactive)
